# Assay results as given in patent US20240190910A1, “HEMI-CITRATE SALTS OF GABA-A POSITIVE […] AND CRYSTALLINE FORM THEREOF” (priority 2021, published 2024).
# Several values for one entry are separate records, joined by “and”; a condition that tells them apart may be missing. Identical values can stand only once. Counter-ions that a name gives are not always drawn. Like-named read-outs stand apart in the source and are kept apart here.
# How the values were obtained:
# Assay type in all cases: physicochemical
# [1] = True density by helium pycnometry
# Experimental: The equipment used was a Micromeritics AccuPyc II 1340, and the test parameters are set forth below. Testing was performed in duplicate (assuming target <2% variability achieved).
# The true density of the material was determined by Helium Pycnometry.
# The equipment used in this study was a Micromeritics AccuPyc II 1340, and the test parameters are the same as described in Example 10. The testing was performed in duplicate (assuming target <2% variability achieved).
# [2] = Dynamic vapor sorption (DVS) hygroscopicity
# Experimental: DVS was measured via a SMS (Surface Measurement System) DVS Intrinsic. Parameters for DVS data collection were as follows:
# A second endotherm (having an onset at 121.5° C.) associated with melting of the dehydrated phase (ΔH: 15.20 J/g) was followed by a rapid decomposition as temperature continued to increase (FIG. 3). Because of the low onset of dehydration, the DVS was measured at both room temperature and at 40° C. to predict the stability of the crystalline phase at 40° C. […] A 1.5% weight loss was observed between 95% and 20% RH, and a 2.9% weight loss was observed between 20% and 0% RH, for a total loss of […] across the entire cycle. […] After measuring the hygroscopicity by DVS, an XRPD pattern was collected for comparison to the original material and found to correspond well to the pattern of the room temperature sample post-DVS temperature cycle (FIG. 6).
# [3] = Compaction characterization by Heckel analysis (yield pressure, strain rate sensitivity, crushing strength); settings: for Yield pressure Fast (300 mm/s) / Yield pressure Slow (0.1 mm/s): summary of runs (± spread); for Strain rate sensitivity: yield pressure at 300 mm/s compared to 0.1 mm/s
# Experimental: The aim of the Heckel test is to compress the material under controlled conditions to derive the yield pressure of the bulk material. A known weight of material is compressed within a 10 mm diameter die with flat faced punches moving at a set speed. The force on the punch is accurately measured at frequent intervals whilst the displacement of the punches is used to calculate the volume of the powder. The yield pressure is calculated at slow and fast punch speeds to assess the time-dependent component to deformation of the material.
# A known weight of pure drug is compacted to theoretical zero porosity using 10 mm diameter flat faced punches. The Compaction Simulator was used under the following conditions:
# During compression the location of the punch tips are accurately determined, and the force measured by load cells producing a record of the primary compression parameters. Temperature and humidity were monitored at intervals during the test.
# The data were analyzed by the Compaction Analysis software program to generate values for yield pressure (Py) using the Heckel equation:
# where • D=the relative density of the compact; • P=Pressure applied; and • K=Gradient of the line in the linear region; [Reference: R. W. Heckel. Trans. Metall. Soc. AIME 221 (1961)1001-1008].
# For some materials, the deformation characteristics change with rate of applied force. This can be estimated by calculating the Strain Rate Sensitivity. The yield pressure at high speed compression is compared to that at slow speed using the following equation: […]
# [4] = Gelation experiments in aqueous media; settings: for concentration at which rapidly gelled: 0.1 N HCl media; for gelation in water or pH 7.4 buffer: 0.5-10 mg/mL
# Experimental: To confirm these findings, controlled experiments were conducted where the free base, mono-citrate, and hemi-citrate salts of Compound 1 were dissolved in aqueous media at concentrations between 0.5 mg/mL and 10 mg/mL. The dissolution experiments were performed in either 0.1 N HCl, water, or pH 7.4 buffer as aqueous media.
# [5] = Tablet dissolution: percent release of Compound 1 from acidified tablet formulation
# Experimental: FIG. 13 is a graph showing percent release of Compound 1 over time for an acidified tablet formulation containing Compound 1 hemi-citrate salt Form I. Tablets were used initially or maintained at 40° C./75% RH for 2 weeks, 1 month, or 2 months.
# FIG. 14 is a graph showing percent release of Compound 1 over time for an acidified tablet formulation containing Compound 1 mono-citrate salt (Form A). Tablets were used initially or stored at 40° C./75% RH for 2 weeks, 1 month, or 2 months.
# [6] = Tablet chemical stability: C17 epimer generation on storage at 40° C./75% RH; settings: tablet dosage form, sealed bottle, 1 or 2 months, compared with mono-citrate salt
# Experimental: FIG. 12 is a graph comparing the amount of the C17 epimer, a degradation product of Compound 1, over time for a tablet formulation containing Compound 1 hemi-citrate salt (Form I; left column in both “1 month” and “2 months”) or Compound 1 mono-citrate salt (Form A; right column in both “1 month” and “2 months”) in sealed bottles stored at 40° C./75% RH).
# [7] = fast speed 300 mm/s, individual runs, 21.7° C./38.9% RH
# [8] = slow speed 0.1 mm/s, individual runs, 21.6° C./37.1% RH
structure (smiles),measurement,setting,value
COC[C@@]1(O)CC[C@@]2(C)[C@@H](CC[C@@H]3[C@@H]2CC[C@]2(C)[C@@H](C(=O)Cn4ccnc4)CC[C@@H]32)C1 [Compound 1 hemi-citrate salt Form I],true density mean,[1],1.2621 g/mL
same,total loss (DVS),[2]; 40° C.,5.4%
same,water absorption from 20% to 80% RH (DVS),[2]; 40° C.,1.8%
same,water lost between 95% and 20% RH (DVS),[2]; 40° C.,2.2%
same,water lost from 20% to 0% RH (DVS),[2]; 40° C.,3.2%
same,hygroscopicity,[2]; DVS at room temperature and 40° C.,slightly hygroscopic
same,total loss across the entire cycle (DVS),[2]; room temperature,4.3%
same,water uptake between 20% and 80% RH (DVS),[2]; room temperature,1.2%
same,weight loss between 20% and 0% RH (DVS),[2]; room temperature,2.9%
same,weight loss between 95% and 20% RH (DVS),[2]; room temperature,1.5%
same,Compact observations,[3],Ok and Chipped and Capped
same,Ejection Force,[3],0.416 kN and 0.445 kN and 0.479 kN and 0.747 kN and 0.736 kN and 0.745 kN
same,Peak Force of Upper punch,[3],20.607 kN and 21.683 kN and 19.936 kN and 14.028 kN and 13.909 kN and 14.571 kN
same,Yield Pressure,[3],67.480 MPa and 73.595 MPa and 67.397 MPa and 83.127 MPa and 80.626 MPa and 89.401 MPa
same,Yield pressure Fast (300 mm/s),[3]; fast speed 300 mm/s,84.38 MPa (±4.52)
same,Yield pressure Slow (0.1 mm/s),[3]; slow speed 0.1 mm/s,69.49 MPa (±3.55)
same,Strain rate sensitivity,[3],21.4%
COC[C@@]1(O)CC[C@@]2(C)[C@@H](CC[C@@H]3[C@@H]2CC[C@]2(C)[C@@H](C(=O)Cn4ccnc4)CC[C@@H]32)C1.O=C(O)CC(O)(CC(=O)O)C(=O)O [Compound 1 mono-citrate salt],concentration at which rapidly gelled,[4],5000 µg/mL
same,gelation in water or pH 7.4 buffer,[4],did not gel
COC[C@@]1(O)CC[C@@]2(C)[C@@H](CC[C@@H]3[C@@H]2CC[C@]2(C)[C@@H](C(=O)Cn4ccnc4)CC[C@@H]32)C1 [Compound 1 hemi-citrate salt],susceptibility to dissolution slow-down of the tablet,[5]; compared with Compound 1 mono-citrate salt,less susceptible
same,release of Compound 1 from an acidified formulation over time,"[5]; initial and tablet stored in open dish at 40° C./75% RH for 2 weeks, 1 month, 2 months, compared with mono-citrate salt",greater
same,degradation product (C17-epimer) generated,[6],less degradation product
same,gelation in aqueous media,"[4]; 0.1 N HCl, water, or pH 7.4 buffer, concentrations up to 10 mg/mL",did not gel
"COC[C@@]1(O)CC[C@@]2(C)[C@@H](CC[C@@H]3[C@@H]2CC[C@]2(C)[C@@H](C(=O)Cn4ccnc4)CC[C@@H]32)C1 [Compound 1, 3α-hydroxy-3β-methoxymethyl-21-(1′-imidazolyl)-5α-pregnan-20-one]",concentration at which rapidly gelled,[4],1000 µg/mL
same,gelation in water or pH 7.4 buffer,[4],did not gel
COC[C@@]1(O)CC[C@@]2(C)[C@@H](CC[C@@H]3[C@@H]2CC[C@]2(C)[C@@H](C(=O)Cn4ccnc4)CC[C@@H]32)C1.O=C(O)CC(O)(CC(=O)O)C(=O)O [Compound 1 mono-citrate salt Form A],true density mean,[1],1.2666 g/mL
same,Compact observations,[3]; [7],Laminated
same,Compact strength,[3]; [7],9.75 Kiloponds and 12.38 Kiloponds and 5.09 Kiloponds
same,Ejection Force,[3]; [7],0.740 kN and 0.649 kN and 0.719 kN
same,Peak Force of Upper punch,[3]; [7],14.137 kN and 14.545 kN and 14.488 kN
same,Yield Pressure,[3]; [7],105.169 MPa and 111.204 MPa and 110.483 MPa
same,Compact observations,[3]; [8],Ok
same,Compact strength,[3]; [8],15.99 Kiloponds and 17.94 Kiloponds and 15.97 Kiloponds and 16.04 Kiloponds
same,Ejection Force,[3]; [8],0.603 kN and 0.426 kN and 0.518 kN and 0.462 kN
same,Peak Force of Upper punch,[3]; [8],18.227 kN and 22.470 kN and 20.499 kN and 22.020 kN
same,Yield Pressure,[3]; [8],70.114 MPa and 92.323 MPa and 85.677 MPa and 90.406 MPa
same,Yield pressure Fast (300 mm/s),[3]; fast speed 300 mm/s,108.95 MPa (±3.30)
same,Yield pressure Slow (0.1 mm/s),[3]; slow speed 0.1 mm/s,84.63 MPa (±10.07)
same,Strain rate sensitivity,[3],28.7%
